Source: paper PMC6754136 (PLoS ONE, 2019)
Read-outs that look alike come from different tables or passages of the source.

Legend:
[1] = biological target: purified recombinant human PDE5 (Homo sapiens, UniProt O76074); test: in vitro PDE5 inhibition assay measuring GMP production from cGMP (HPLC-UV-MS); type: biochemical
Description: STRENDA guidelines were considered in the description of the following enzyme activity assays. PDE5 inhibition and kinetics assays were carried out according to the method of Kincaid and Manganiello [31] and Dell’Agli et al. 1 nM recombinant human PDE5 (catalytic domain consisting of amino acids 537–875, Abcam, ab125581) was pre-incubated with PDE5 inhibitors (synthesized in-house as described above or purchased from Selleck Chemicals) in 40 mM tris-hydrochloric acid, pH 7.8, containing 10 mM MgCl2. […]. PDE5 inhibitors were added to each reaction using a Hewlett-Packard D300 Digital Dispenser (Tecan). Maximum DMSO concentration was 0.1% of the final reaction volume for all samples. After incubation at 25 °C for 5 minutes to allow interaction between PDE5 and drugs, the reaction was started with the addition of 0.3 μM cGMP (Enzo Life Sciences, Inc.) and incubated at 25 °C for 15 minutes. The final reaction volume was 100 μL. Reactions were stopped with the addition of 100 μL of 0.1 M HCl and neutralized by adding 0.1 M NaOH until the pH was 7. […] The amount of GMP produced was measured by HPLC-UV-MS as described in the general procedures. Reaction mixture components were separated with a ramp gradient of solvent A and B run at a flow rate of 0.5 mL/min as follows: 0–4 minutes 0% B, 4–7 minutes 0–95% B, 7–8 minutes 95% B, 8–11.1 minutes 0% B. GMP was measured using selected reaction monitoring in positive mode for a centroid center mass of 152.
A calibration curve using known concentrations of GMP was generated using the HPLC-UV-MS method described above to quantify the absolute amount of GMP in each reaction (S13 Fig). The linear range was from 5.9 nM to 3 μM. The limit of detection (LOD), defined as the lowest concentration producing a detectable peak above background, was 0.1 nM. The lower limit of quantification (LLOQ), defined as the lowest concentration used to generate a standard curve with r^2 > 0.95, was 5.9 nM. The upper limit of quantification (ULOQ), defined as the highest concentration used to generate a standard curve with r^2 > 0.95, was 3 μM. A GMP calibration curve was generated with each individual run of the HPLC-UV-MS.
To measure the IC50 as a result of treatment with each icariin analog, the in vitro inhibition enzyme assay as described above was performed, and GMP levels were normalized to no-drug controls and multiplied by 100 to obtain the percent PDE5 activity. IC50 mean ± SEM values were determined by nonlinear-regression fitting of the percent PDE5 activity data using the [inhibitor] vs response–variable slope (four parameters) equation in Prism (version 7.0a and version 8). Top value was constrained to 100, all other parameters were unconstrained. To obtain the dose-response curves for visual confirmation of the best-fit line, we executed a nonlinear regression fitting using the log(inhibitor) vs. response—variable slope (four parameters) equation in Prism. […] AICc analysis (built into Prism) was used to confirm the best-fitting inhibition model. […] Inhibition models were also compared via visual inspection of the fit of the calculated curves on the Michaelis-Menten plots.

[2] = mitochondrial viability assay with resazurin; type: cell-based, human; conditions: human, 0.01–10 μM; for viability at 3 days, 10 μM: four cell lines, even at the highest concentration tested (10 μM)
Description: (§1) The human cell lines SH-SY5Y (SY5Y, ATCC CRL-2266), SK-MEL-5 (SKMEL-5, ATCC HTB-70), and NCI-H187 (H187, ATCC CRL-5804) were cultured in RPMI medium supplemented with 10% FBS and no antibiotics. These three cell lines were generously provided by the laboratory of Susan Lindquist via Luke Whitesell (currently at the University of Toronto, Toronto, ON, Canada). BJ-hTERT (described in [27], generously provided by Robert Weinberg, Whitehead Institute, Cambridge MA, USA) was cultured in 4:1 DMEM:M199 medium supplemented with 15% FBS and no antibiotics. All cell lines were grown and assayed at 37 °C, 5% CO2. All cell lines were screened for mycoplasma contamination by PCR (Mycoscope Detection Kit, Fisher Scientific) before use in assays.
(§2) For viability assays, cells were plated in black, clear bottom 384-well tissue culture-treated plates (Corning) and incubated overnight in the media described above but supplemented with 50 U/mL penicillin-streptomycin antibiotic (Life Technologies). Then, DMSO (no drug controls) and PDE5 inhibitors (0.01–10 μM; synthesized as described above or purchased from Selleck Chemicals) were added using a Hewlett-Packard D300 Digital Dispenser (Tecan) and incubated for 3 days. Maximum DMSO concentration was normalized to 0.1% of the total well volume for all wells. Resazurin (R & D Systems) was diluted 1:20 into each well and incubated for up to 4 hours. Fluorescence was read in a Tecan plate reader (excitation = 570 nm, emission = 585 nm). Wells treated with PDE5 inhibitors were normalized against control wells treated with DMSO to measure percent mitochondrial viability (100 = no effect on mitochondrial viability).

human PDE5 = conditions: cited from earlier work
[3] = system: cavernous smooth muscle cells; parameters: method as in PMID 17169663; conditions: cells isolated from mice; cited from earlier work
[4] = system: lysate of COS-7 cells expressing human PDE5; parameters: method as in PMID 18778098; conditions: cited from earlier work
[5] = system: human PDE5 catalytic domain; parameters: method as in PMID 16735511; conditions: cited from earlier work
[6] = system: SH-SY5Y, SK-MEL-5, BJ-hTERT and NCI-H187 cell lines; test: mitochondrial viability assay with resazurin; type: cell-based, human; conditions: 0.01–10 μM, 3 days
Description: as §1, §2

[7] = biological target: T1, partially purified recombinant human PDE6C (Homo sapiens, UniProt P51160); test: PDE6C inhibition assay (GMP production); type: biochemical
T1 construct: partially purified recombinant full-length human PDE6C; purchased SB Drug Discovery; host or cells: insect cells
Description: PDE6C inhibition was measured using the same method as described for PDE5 with modifications. […] The final reaction volume was 50 μL. […] Reactions were stopped as described above for PDE5 enzyme assays, and GMP was quantified as described above. […] The amount of GMP produced in these samples was subtracted from all samples before normalizing against untreated controls.

BJ-hTERT cells = test: cellular GMP levels after inhibitor treatment; type: cell-based, human; conditions: 20 μM inhibitor, 1 hour; mean ± SEM; p<0.001
Description: For assaying PDE5 inhibitor effects on GMP levels in a cell line, BJ-hTERT cells were plated in 6-well plates (Corning) in the media described above. When cells were 80% confluent, fresh, pre-warmed media with DMSO (untreated controls) or 20 μM sildenafil, 3, or 7 was added and incubated for 1 hour. Maximum DMSO concentration in all samples was 0.2% of the total well volume. Cells were washed once with cold 0.9% NaCl. 800 μL of 80:20 methanol:water spiked with 500 nM isotopically labeled amino acids as internal standards was added while cells were on dry ice. Cells were detached with a cell scraper. Extracts were vortexed for 10 minutes and centrifuged at maximum speed at 4 °C to remove debris. Extracts were dried down in a vacuum dryer and stored at -80 °C. An additional sample was reserved for visual inspection of cell health by confocal light microscopy and for cell counting with a hemocytometer. Three independent assays were conducted in total, with 1–2 replicates per assay. To analyze GMP levels, samples were reconstituted in 50 μL LC-MS grade water and analyzed by HPLC-UV-MS as described in the general procedures and for enzyme inhibition and kinetics assays. The amino acid standards were analyzed in full scan positive mode with mass windows m/z 50–800. GMP peak areas were normalized to the peak area of the internal standard ^13C4, ^15N-threonine or ^13C6, ^15N3-histidine to account for variations in extraction or resuspension volume. The peak areas were then normalized to the average GMP peak area in undrugged controls and multiplied by 100 to obtain the percent GMP.

PDE6 isoforms = system: PDE6 isoforms; parameters: method as in PMID 16780568, PMID 16123402; conditions: cited from earlier work

T1 sequence (P51160 whole entry): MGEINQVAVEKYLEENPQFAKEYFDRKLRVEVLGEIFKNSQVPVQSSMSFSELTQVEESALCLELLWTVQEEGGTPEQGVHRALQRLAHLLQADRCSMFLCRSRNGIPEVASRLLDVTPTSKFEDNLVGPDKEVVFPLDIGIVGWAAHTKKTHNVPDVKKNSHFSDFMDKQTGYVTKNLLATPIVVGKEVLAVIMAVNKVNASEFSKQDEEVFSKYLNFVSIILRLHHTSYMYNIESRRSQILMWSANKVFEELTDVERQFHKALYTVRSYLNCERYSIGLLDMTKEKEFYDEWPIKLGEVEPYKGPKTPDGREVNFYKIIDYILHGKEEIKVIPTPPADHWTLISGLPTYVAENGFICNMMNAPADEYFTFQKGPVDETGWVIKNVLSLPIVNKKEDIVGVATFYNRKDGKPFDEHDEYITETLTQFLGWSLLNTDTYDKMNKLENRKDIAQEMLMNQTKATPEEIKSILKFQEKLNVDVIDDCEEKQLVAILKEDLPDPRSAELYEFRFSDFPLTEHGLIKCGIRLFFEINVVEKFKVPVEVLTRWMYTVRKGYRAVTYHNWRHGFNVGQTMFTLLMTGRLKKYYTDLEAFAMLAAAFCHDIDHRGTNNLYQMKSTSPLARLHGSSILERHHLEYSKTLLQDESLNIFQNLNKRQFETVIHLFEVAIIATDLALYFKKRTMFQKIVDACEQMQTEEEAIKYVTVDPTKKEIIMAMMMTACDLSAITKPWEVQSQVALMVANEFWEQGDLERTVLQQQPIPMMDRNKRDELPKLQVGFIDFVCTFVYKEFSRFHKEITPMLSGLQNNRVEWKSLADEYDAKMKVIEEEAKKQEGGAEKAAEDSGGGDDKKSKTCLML

In the case of `COc1ccc(-c2oc3c(CC=C(C)C)c(O[C@@H]4O[C@H](CO)[C@@H](O)[C@H](O)[C@H]4O)cc(O)c3c(=O)c2O[C@@H]2O[C@@H](C)[C@H](O)[C@@H](O)[C@H]2O)cc1` [icariin], the IC50 [1] is given as 6000 ± 1000 nM, the viability at 3 days, 10 μM [2] is given as > 70% and the mode of inhibition (human PDE5) is given as “competitively inhibit PDE5”. For the same molecule, the IC50 (human PDE5; human PDE5) was 1000 to 6000 nM and the “effect on cGMP levels” value [3] was “increase cGMP levels”.
In the case of Icariside II [Compound 1], the “fold improvement in PDE5 inhibition compared to icariin” value [4] is listed as 34 fold, the IC50 ([4]; lysate of COS-7 cells expressing human PDE5) is listed as 160 nM and the “mode of inhibition suggested by the crystal structure” value [5] is listed as “binds to the active site as a competitive inhibitor”.
With `COc1ccc(-c2oc3c(CC=C(C)C)c(O)cc(O)c3c(=O)c2OCCO)cc1` [Compound 6, 3-O-(2-Hydroxyethyl)-Icaritin] the IC50 ([1]; 1 nM PDE5 catalytic domain, 0.3 μM cGMP, 25 °C, 15 min, mean of at least three replicates ± SEM, read-out: IC50) was 400 ± 200 nM, the “Fold improved potency (fold change in IC50 compared to icariin)” value ([1]; relative to icariin) was 15 fold and the viability at 3 days ([2]; marked reduction in at least one cell line) was ≤ 70%. The “effect on viability across cell lines” value [6] was “marked reduction in viability of all four cell lines”.
With `CCCc1nn(C)c2c(=O)[nH]c(-c3cc(S(=O)(=O)N4CCN(C)CC4)ccc3OCC)nc12` [sildenafil, reference compound] the “PDE6C inhibition, statistical significance” value ([7]; at 50x the PDE5 IC50, vs theoretical uninhibited mean of 100%) was “do not show any statistically significant PDE6C inhibition”, the “% PDE6C activity remaining” value ([7]; inhibitor at 50x its PDE5 IC50 (sildenafil 1.5 μM, 3 and 7 5 μM), 14 μM cGMP, 1 hour, mean ± SEM) was 78 ± 13% and the viability at 3 days, 10 μM [2] was > 70%. For the same molecule, the “cellular GMP concentration, % of the GMP concentration in untreated control cells” value (BJ-hTERT cells) was 7 ± 1%, the IC50 (human PDE5; PDE5, competitive inhibitors) was […] and the “inhibition of PDE6 isoforms” value (PDE6 isoforms) was “show inhibition of PDE6 isoforms”.
